In patent US10138271B2, “Native and agonist CTL epitopes of the MUC1 tumor antigen” (The United States of America, as represented by the …, priority 2012, dated 2018):

How the values were obtained:
Format in all cases: cell-based, human
[1] = tested on: MUC1-C specific CD8+ T-cells; experiment: HLA-A3 tetramer analysis of T-cell lines; conditions: T-cell line after 6 IVS cycles
Procedure: (§1) Phycoerythrin (PE) labeled HLA-A3-P432-3F10K and HLA-A3-P483-2L3F tetramers were prepared by the NIH Tetramer Core Facility (Atlanta, Ga.), and PE labeled MHC class I human negative tetramer (Kit No T01044) was obtained from Beckman Coulter Inc (Sykesville, Md.). […] The tetramers were used at a 1:100 dilution, and cells were stained for 45 minutes at 4° C. 1×10^5 cells were acquired on an LSRII (BD), and data was analyzed using FlowJo 9.0.1 software (Tree Star Inc, Ashland, Oreg.).
To determine the frequency of MUC1-C specific CD8^+ T-cells in the T-cell lines generated with peptides P432-3F10K and P483-2L3F, HLA-A3-P432-3F10K tetramer and HLA-A3-P483-2L3F tetramer analysis was used. After 6 IVS cycles, 20% and 16% of the T-cells bound to the P432-3F10K and P483-2L3F tetramer, respectively. 0.01% and 0.04% of the cells bound to a negative tetramer.

[2] = tested on: CD8+ T cells in PBMCs from cancer patients; experiment: Tetramer staining of patient PBMCs after 2 IVS cycles with peptide
Procedure: as §1
PBMCs from three patients from the clinical vaccine trial were stimulated for 2 IVS cycles with the autologous dendritic cells exposed to peptide P432-3F10K or P483-2L3F, and one week after the last stimulation the cells were subjected to FACS analysis after staining with CD8-FITC (20 μL) and either P432-3F10K/P483-2L3F-tetramer-PE (1 μL) or negative tetramer-PC (1 μL) for 45 minutes.
Results in Tables 9 and 10 are expressed as the frequency of tetramer positive cells from all CD8^+ T-cells.

[3] = tested on: CD8+ T-cells in PBMCs from carcinoma patients; experiment: IFNγ ELISPOT assay, precursor frequency of specific T-cells in patient PBMCs; conditions: for Patients with specific IFNγ production upon stimulation with peptide: PBMCs pre and three months postvaccination; for Precursor frequency of specific T-cells: peptide 25 μg/mL
Procedure: Measurement of CD8 immune responses in HLA-A3^+ patients was conducted by enzyme-linked immunosorbent spot assay (ELISPOT) using a modification of the procedure described in Arlen et al., Cancer Immunol. Immunother., 49: 517-529 (2000). The assay was performed using K562-A3 cells as APC. ELISPOT measures the frequency of T cells releasing IFNγ in response to stimulation with a peptide. P432-3F10K, P483-2L3F, no peptide, or an HIV gag peptide (SEQ ID NO: 25; a negative control) were used. Pre- and Post-vaccination PBMCs from each patient were compared. A positive response was scored as a ≥2-fold increase in IFNγ-secreting cells. The spots were analyzed using an ImmunoSpot counter (Cellular Technology Ltd, Shaker Heights, Ohio).
To evaluate the presence of CD8^+ T-cells reactive to the P432-3F10K and P483-2L3F peptides in PBMCs from carcinoma patients enrolled in the clinical vaccine trial, an IFNγ ELISPOT assay was performed. The P432-3F10K and P483-2L3F peptides were used in an ELISPOT assay at a concentration of 25 μg/mL to determine the precursor frequency of specific T-cells. Peptide-pulsed K562-A3 cells were used as APC at an effector:APC ratio of 1:2. HIV peptide and no peptide were used as controls.

[4] = tested on: MUC1-C specific T-cell lines; experiment: Cytokine production by MUC1-C specific T-cell lines with peptide-pulsed autologous B-cells (Multi-array)
Procedure: 2.2×10^6 T-cells and 5.5×10^6 autologous B-cells pulsed with peptide P432-3F10K or P483-2L3F were incubated for 24 h in […] medium per well. The supernatants were analyzed by Multi-array technology (Meso Scale Diagnostics, Gaitersburg, Md.) for detection of cytokines.
To test the ability of the MUC1-C peptides to induce cytokine production, P432-3F10K and P483-2L3F specific T-cell lines (1.1×10^6 T cells/mL) from two patients from the PANVAC ovarian cancer clinical trial described in Example 6 were incubated for 24 hours with autologous B-cells pulsed with P432-3F10K or P483-2L3F for 24 hours. The cytokine levels in supernatant of stimulated and unstimulated cells were evaluated.

For ALFIVYLIAK [Peptide P432-3F10K], the “T-cells bound to peptide/HLA-A3 tetramer” value [1] was 20%, the “Frequency of tetramer positive cells from all CD8+ T-cells” value (“Frequency of tetramer positive cells” below) ([2]; patient III post-vaccination) was 59.9% and the “Frequency of tetramer positive cells” value ([2]; patient III pre-vaccination) was 44.5%. For the same sequence, the “Frequency of tetramer positive cells” value ([2]; patient IV post-vaccination) was 23.8%, the “Frequency of tetramer positive cells” value ([2]; patient IV pre-vaccination) was 22.0% and the “Frequency of tetramer positive cells” value ([2]; patient V post-vaccination) was 22.0%. For the same sequence, the “Frequency of tetramer positive cells” value ([2]; patient V pre-vaccination) was 31.5%, the “Patients with specific IFNγ production upon stimulation with peptide” value [3] was 5 of 11 and the “Precursor frequency of specific T-cells” value ([3]; Patient II, Post) was 1/2372. For the same sequence, the “Precursor frequency of specific T-cells” value ([3]; Patient II, Pre) was 1/6316, the “Precursor frequency of specific T-cells” value ([3]; Patient III, Post) was 1/5455 and the “Precursor frequency of specific T-cells” value ([3]; Patient III, Pre) was 1/6522. For the same sequence, the “Precursor frequency of specific T-cells” value ([3]; Patient IV, Post) was 1/1322, the “Precursor frequency of specific T-cells” value ([3]; Patient IV, Pre) was 1/2000 and the “Precursor frequency of specific T-cells” value ([3]; Patient IX, Post) was <1/200000. For the same sequence, the “Precursor frequency of specific T-cells” value ([3]; Patient IX, Pre) was <1/200000, the “Precursor frequency of specific T-cells” value ([3]; Patient V, Post) was <1/200000 and the “Precursor frequency of specific T-cells” value ([3]; Patient V, Pre) was <1/200000. The “Precursor frequency of specific T-cells” value ([3]; Patient VI, Post) was 1/21429, the “Precursor frequency of specific T-cells” value ([3]; Patient VI, Pre) was 1/4511 and the “Precursor frequency of specific T-cells” value ([3]; Patient VII, Post) was <1/200000. For the same sequence, the “Precursor frequency of specific T-cells” value ([3]; Patient VII, Pre) was <1/200000, the “Precursor frequency of specific T-cells” value ([3]; Patient VIII, Post) was <1/200000 and the “Precursor frequency of specific T-cells” value ([3]; Patient VIII, Pre) was <1/200000. For the same sequence, the “Precursor frequency of specific T-cells” value ([3]; Patient X, Post) was <1/200000, the “Precursor frequency of specific T-cells” value ([3]; Patient X, Pre) was <1/200000 and the “Precursor frequency of specific T-cells” value ([3]; Patient XI, Post) was 1/7229. The “Precursor frequency of specific T-cells” value ([3]; Patient XI, Pre) was 1/4196, the IFNγ ([4]; Patient I, IVS 7) was 350 pg/mL and the IL-2 ([4]; Patient I, IVS 7) was 40 pg/mL. It also gave an IL-6 ([4]; Patient I, IVS 7) of 16 pg/mL, an IL-12p70 ([4]; Patient I, IVS 7) of 5 pg/mL and a TNFα ([4]; Patient I, IVS 7) of 180 pg/mL. For the same sequence, the IFNγ ([4]; Patient II, IVS 8) was 50 pg/mL, the IL-2 ([4]; Patient II, IVS 8) was 3 pg/mL and the IL-6 ([4]; Patient II, IVS 8) was 80 pg/mL. It also gave an IL-12p70 ([4]; Patient II, IVS 8) of 7 pg/mL and a TNFα ([4]; Patient II, IVS 8) of 130 pg/mL.
In the case of SLFRSPYEK [Peptide P483-2L3F], the “T-cells bound to peptide/HLA-A3 tetramer” value [1] is reported as 16%, the “Frequency of tetramer positive cells” value ([2]; patient III post-vaccination) is reported as 80.9% and the “Frequency of tetramer positive cells” value ([2]; patient III pre-vaccination) is reported as 64.7%. The “Frequency of tetramer positive cells” value ([2]; patient IV post-vaccination) was 65.7%, the “Frequency of tetramer positive cells” value ([2]; patient IV pre-vaccination) was 45.5% and the “Frequency of tetramer positive cells” value ([2]; patient V post-vaccination) was 43.8%. For the same sequence, the “Frequency of tetramer positive cells” value ([2]; patient V pre-vaccination) was 53.5%, the “Patients with specific IFNγ production upon stimulation with peptide” value [3] was “No patient had a specific reaction” and the “Precursor frequency of specific T-cells” value ([3]; Patient II, Post) was <1/200000. The “Precursor frequency of specific T-cells” value ([3]; Patient II, Pre) was <1/200000, the “Precursor frequency of specific T-cells” value ([3]; Patient III, Post) was <1/200000 and the “Precursor frequency of specific T-cells” value ([3]; Patient III, Pre) was <1/200000. The “Precursor frequency of specific T-cells” value ([3]; Patient IV, Post) was <1/200000, the “Precursor frequency of specific T-cells” value ([3]; Patient IV, Pre) was <1/200000 and the “Precursor frequency of specific T-cells” value ([3]; Patient IX, Post) was <1/200000. The “Precursor frequency of specific T-cells” value ([3]; Patient IX, Pre) was <1/200000, the “Precursor frequency of specific T-cells” value ([3]; Patient V, Post) was <1/200000 and the “Precursor frequency of specific T-cells” value ([3]; Patient V, Pre) was <1/200000. The “Precursor frequency of specific T-cells” value ([3]; Patient VI, Post) was <1/200000, the “Precursor frequency of specific T-cells” value ([3]; Patient VI, Pre) was <1/200000 and the “Precursor frequency of specific T-cells” value ([3]; Patient VII, Post) was <1/200000. The “Precursor frequency of specific T-cells” value ([3]; Patient VII, Pre) was <1/200000, the “Precursor frequency of specific T-cells” value ([3]; Patient VIII, Post) was <1/200000 and the “Precursor frequency of specific T-cells” value ([3]; Patient VIII, Pre) was <1/200000. The “Precursor frequency of specific T-cells” value ([3]; Patient X, Post) was <1/200000, the “Precursor frequency of specific T-cells” value ([3]; Patient X, Pre) was <1/200000 and the “Precursor frequency of specific T-cells” value ([3]; Patient XI, Post) was <1/200000. For the same sequence, the “Precursor frequency of specific T-cells” value ([3]; Patient XI, Pre) was <1/200000, the IFNγ ([4]; Patient I, IVS 7) was 180 pg/mL and the IL-2 ([4]; Patient I, IVS 7) was 7 pg/mL. It also gave an IL-6 ([4]; Patient I, IVS 7) of 12 pg/mL, an IL-12p70 ([4]; Patient I, IVS 7) of 5 pg/mL and a TNFα ([4]; Patient I, IVS 7) of 46 pg/mL. It also gave an IFNγ ([4]; Patient II, IVS 8) of 2590 pg/mL, an IL-2 ([4]; Patient II, IVS 8) of 15 pg/mL and an IL-6 ([4]; Patient II, IVS 8) of 150 pg/mL. The IL-12p70 ([4]; Patient II, IVS 8) was 9 pg/mL and the TNFα ([4]; Patient II, IVS 8) was 470 pg/mL.
